ChEMBL document CHEMBL5584207, “Discovery of novel indole derivatives as potent and selective inhibitors of proMMP-9 activation” (Bioorg Med Chem Lett, 2024)
Converted amounts (≈) assume the structure as drawn. Values belong to the compound of their own block, whether it stands above or below them. The source made the active and inactive calls. The rule behind the calls is not given here.

What was measured:
[1] = target: Matrix metalloproteinase-9 (Homo sapiens, UniProt P14780); experiment: Inhibition of proMMP-9 (unknown origin)
Matrix metalloproteinase-9, sequence (P14780 whole entry): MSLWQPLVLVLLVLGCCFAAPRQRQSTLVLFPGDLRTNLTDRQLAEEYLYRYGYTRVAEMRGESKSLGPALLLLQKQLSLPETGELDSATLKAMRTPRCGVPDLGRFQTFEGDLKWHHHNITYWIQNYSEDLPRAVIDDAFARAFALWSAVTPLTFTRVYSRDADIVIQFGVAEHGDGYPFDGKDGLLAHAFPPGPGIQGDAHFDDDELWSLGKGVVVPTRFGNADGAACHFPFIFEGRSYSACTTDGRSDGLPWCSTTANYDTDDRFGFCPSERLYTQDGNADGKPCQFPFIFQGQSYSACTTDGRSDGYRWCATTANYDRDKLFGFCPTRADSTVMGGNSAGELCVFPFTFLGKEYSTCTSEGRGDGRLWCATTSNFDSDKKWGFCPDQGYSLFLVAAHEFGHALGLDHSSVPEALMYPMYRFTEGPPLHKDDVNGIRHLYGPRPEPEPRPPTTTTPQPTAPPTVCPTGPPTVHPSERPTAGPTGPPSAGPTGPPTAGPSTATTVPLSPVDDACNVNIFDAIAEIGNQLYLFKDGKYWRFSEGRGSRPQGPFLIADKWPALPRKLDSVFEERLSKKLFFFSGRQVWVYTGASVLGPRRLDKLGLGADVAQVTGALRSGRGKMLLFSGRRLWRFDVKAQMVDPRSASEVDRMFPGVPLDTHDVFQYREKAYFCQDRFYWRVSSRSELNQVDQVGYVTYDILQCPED

[2] = Solubility of compound; format: physicochemical
[3] = target: Stromelysin-1 (Homo sapiens) (UniProt P08254); experiment: Inhibition of MMP-3 catalytic activity (unknown origin)
Stromelysin-1 (Homo sapiens), sequence (P08254 100-477 limits assumed): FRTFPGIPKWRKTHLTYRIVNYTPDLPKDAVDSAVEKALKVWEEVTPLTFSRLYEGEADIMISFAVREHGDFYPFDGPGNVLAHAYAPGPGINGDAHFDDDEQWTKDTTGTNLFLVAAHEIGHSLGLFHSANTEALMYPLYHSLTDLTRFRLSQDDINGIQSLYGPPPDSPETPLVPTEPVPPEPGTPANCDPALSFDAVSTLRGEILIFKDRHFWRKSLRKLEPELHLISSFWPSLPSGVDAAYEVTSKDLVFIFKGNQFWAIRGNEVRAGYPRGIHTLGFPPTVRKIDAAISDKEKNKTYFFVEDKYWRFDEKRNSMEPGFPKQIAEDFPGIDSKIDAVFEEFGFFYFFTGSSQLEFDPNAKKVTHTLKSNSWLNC

[4] = target: 72 kDa type IV collagenase (Homo sapiens, UniProt P08253); experiment: Inhibition of proMMP-2 (unknown origin)
72 kDa type IV collagenase, sequence (P08253 whole entry): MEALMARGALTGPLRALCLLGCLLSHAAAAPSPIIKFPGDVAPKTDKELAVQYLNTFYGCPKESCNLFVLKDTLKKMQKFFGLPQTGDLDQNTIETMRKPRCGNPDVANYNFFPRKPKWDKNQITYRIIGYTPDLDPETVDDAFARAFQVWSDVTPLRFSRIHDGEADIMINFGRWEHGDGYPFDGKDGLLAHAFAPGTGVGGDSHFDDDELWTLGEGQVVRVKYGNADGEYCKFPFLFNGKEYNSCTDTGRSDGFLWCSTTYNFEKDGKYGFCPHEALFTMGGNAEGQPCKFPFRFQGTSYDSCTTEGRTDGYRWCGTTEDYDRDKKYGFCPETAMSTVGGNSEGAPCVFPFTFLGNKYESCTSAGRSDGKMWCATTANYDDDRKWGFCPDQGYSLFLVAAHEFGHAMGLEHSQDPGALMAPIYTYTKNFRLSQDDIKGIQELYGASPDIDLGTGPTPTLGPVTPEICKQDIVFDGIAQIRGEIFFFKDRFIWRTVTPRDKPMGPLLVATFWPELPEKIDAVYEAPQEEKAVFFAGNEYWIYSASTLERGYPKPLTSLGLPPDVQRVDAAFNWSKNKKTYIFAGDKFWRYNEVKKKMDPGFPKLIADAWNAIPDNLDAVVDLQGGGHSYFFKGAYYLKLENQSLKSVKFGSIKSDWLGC

Collagenase 3 = Collagenase 3 (Homo sapiens, UniProt P45452); experiment: Inhibition of proMMP-13 (unknown origin)

IC50 [1]: 81 nM
solubility [2]: 8.6 µg/mL (≈ 25.9 µM)
SMILES: O=C(c1cc2ccc(C3CC3)cc2[nH]1)N1CCCc2cnccc2C1

IC50 [1]: 120 nM
solubility [2]: 0.4 µg/mL (≈ 1.16 µM)
SMILES: O=C(c1cc2ccc(C3CCC3)cc2[nH]1)N1CCCc2cnccc2C1

IC50 [1]: 160 nM
solubility [2]: 3 µg/mL (≈ 7.99 µM)
SMILES: C[C@]1(O)C[C@@H](c2ccc3cc(C(=O)N4CCCc5cnccc5C4)[nH]c3c2)C1

IC50 [1]: 120 nM
solubility [2]: 0.8 µg/mL (≈ 2.5 µM)
SMILES: CCc1ccc2cc(C(=O)N3CCCc4cnccc4C3)[nH]c2c1

IC50 [1]: > 50000 nM
SMILES: O=C(c1cc2ccc(C3CC3)cc2[nH]1)N1CCc2cnccc2C1

Further lines, the compound ahead of its results:

SMILES: CNc1cc(F)cc2cc(C(=O)N3CCc4ccc(C(=O)NCCN5CCCC5)cc4C3)[nH]c12
inhibition [3]: inactive
IC50 [1]: 2600 nM

SMILES: O=C(c1cc2ccc(C3CC3)cc2[nH]1)N1CCc2ocnc2C1
IC50 [1]: 1100 nM

SMILES: CC(C)(O)c1ccc2cc(C(=O)N3CCCc4cnccc4C3)[nH]c2c1
IC50 [1]: 580 nM
solubility [2]: > 35 µg/mL

SMILES: CC(C)(O)c1ccc2cc(C(=O)N3CCCc4cnc(N)c(F)c4C3)[nH]c2c1
IC50 [4]: > 30000 nM
IC50 (Collagenase 3): > 30000 nM
IC50 [1]: 44 nM

SMILES: O=C(NCCN1CCCC1)c1ccc2c(c1)CN(C(=O)c1cc3c(F)cc(C4CC4)cc3[nH]1)CC2
IC50 [1]: 1000 nM

SMILES: CC(C)(C)c1ccc2cc(C(=O)N3CCCc4cnccc4C3)[nH]c2c1
IC50 [1]: 110 nM
solubility [2]: 1.3 µg/mL (≈ 3.74 µM)

SMILES: CCc1cccc2c(C(=O)N3CCc4ocnc4C3)n[nH]c12
inhibition [3]: inactive
IC50 [1]: 8500 nM

SMILES: O=C(c1cc2ccc(CCO)cc2[nH]1)N1CCCc2cnccc2C1
IC50 [1]: 1100 nM
solubility [2]: > 33 µg/mL

SMILES: O=C(c1cc2ccc(C3CC3)cc2[nH]1)N1CCc2ccccc2C1
IC50 [1]: > 50000 nM
